Entries after “also recorded” stand apart in the source; their conditions may differ. Marks after values point to notes of the source that are not given here.
Tests used:
[1] = acute and single dose studies; cited from earlier work
[2] = Brain deposition of GSPE phenolic constituents; type: in vivo, Sprague Dawley rats; conditions: for Detection in brain tissue: rats; for Concentration in brain tissue: rats administered GSPE for 10 days (dose escalation, last dose 150 mg/kg BW), perfused brain, mean ± SEM
[3] = Plasma pharmacokinetics of GSPE phenolic constituents after intragastric gavage; type: in vivo, Sprague Dawley rats; conditions: for Increase of total (free plus methylated) C AUC0-8h: rats; for Detection in rat plasma: acute oral administration of GSPE; for AUC(0-8h) / Cmax / Tmax: rat plasma, mean ± SEM
[4] = humans; four week multiple dose administration; cited from earlier work
[5] = 10 day repeated GSPE pretreatment prior to pharmacokinetic dose
[6] = single acute GSPE dose (50, 100 or 150 mg/kg BW)
[7] = single intragastric gavage 50 mg GSE/kg BW
[8] = single intragastric gavage 100 mg GSE/kg BW
[9] = single intragastric gavage 150 mg GSE/kg BW

Row | Detection in brain tissue [2, 5] | Concentration in brain tissue [2] [pg/g] | Detection in brain tissue [2, 6] | Increase of total (free plus methylated) C AUC0-8h ([3]; 50 to 100 mg/kg BW dose) [%] | Increase of total (free plus methylated) C AUC0-8h ([3]; 100 to 150 mg/kg BW dose) [%] | Detection in rat plasma [3] | AUC(0-8h) [3, 7] | Cmax [3, 7] | Tmax [3, 7] [h] | AUC(0-8h) [3, 8] | Cmax [3, 8] | Tmax [3, 8] [h] | AUC(0-8h) [3, 9] | Cmax [3, 9] | Tmax [3, 9] [h] | SMILES | Bioavailability [1] | Improvement of bioavailability by multiple dosing [4] [%]
1 | Trace but not quantifiable levels | – | – | – | – | – | 60.5 ± 4.1 ^a ng/mL*h | 36.8 ± 5.8 ^a ng/mL | 1.0 ± 0.0 | 266.6 ± 61.4 ^b ng/mL*h | 105.9 ± 22.0 ^a ng/mL | 1.5 ± 0.2 | 639.5 ± 67.0 ^c ng/mL*h | 167.7 ± 19.6 ^a ng/mL | 1.3 ± 0.2 | COc1cc([C@H]2Oc3cc(O)cc(O)c3C[C@H]2O)ccc1O [3′-OMeEC, 3′-O-methylepicatechin] | – | –
2 | detectable levels | 290.7 ± 45.9 | not detectable | – | – | detected | – | – | – | – | – | – | – | – | – | Oc1cc(O)c2c(c1)O[C@H](c1ccc(O)c(O)c1)[C@H](O)C2 [EC, (−)-epicatechin] | < 2 % of oral dose | –

Further lines, the compound ahead of its results:

Row | SMILES | Detection in brain tissue [2, 5] | Concentration in brain tissue [2] [pg/g] | Detection in brain tissue [2, 6] | Increase of total (free plus methylated) C AUC0-8h ([3]; 50 to 100 mg/kg BW dose) [%] | Increase of total (free plus methylated) C AUC0-8h ([3]; 100 to 150 mg/kg BW dose) [%] | Detection in rat plasma [3] | AUC(0-8h) [3, 7] | Cmax [3, 7] | Tmax [3, 7] [h] | AUC(0-8h) [3, 8] | Cmax [3, 8] | Tmax [3, 8] [h] | AUC(0-8h) [3, 9] | Cmax [3, 9] | Tmax [3, 9] [h] | Bioavailability [1] | Improvement of bioavailability by multiple dosing [4] [%]
3 | Oc1cc(O)c2c(c1)OC(c1ccc(O)c(O)c1)C(O)C2 (single isomer, unassigned; (+)) [C, (+)-catechin] | detectable levels | 576.7 ± 227.7 | not detectable | 78 | 106 | detected | 398.5 ± 80.5 ^a ng/mL*h | 207.5 ± 34.8 ^a ng/mL | 1.7 ± 0.7 | 606.1 ± 64.6 ^a ng/mL*h | 289.9 ± 37.2 ^a ng/mL | 1.8 ± 0.2 | 1168.2 ± 143.6 ^b ng/mL*h | 442.4 ± 49.1 ^b ng/mL | 1.1 ± 0.2 | < 2 % of oral dose | –
4 | COc1cc([C@H]2Oc3cc(O)cc(O)c3C[C@@H]2O)ccc1O [3′-OMeC, 3′-O-methylcatechin] | Trace but not quantifiable levels | – | – | – | – | – | 44.1 ± 4.9 ^a ng/mL*h | 22.7 ± 3.5 ^a ng/mL | 1.0 ± 0.0 | 184.8 ± 45.3 ^a ng/mL*h | 75.5 ± 14.0 ^b ng/mL | 1.4 ± 0.2 | 465.1 ± 45.1 ^b ng/mL*h | 129.3 ± 13.2 ^c ng/mL | 1.3 ± 0.2 | – | –
5 | O=C(O[C@@H]1Cc2c(O)cc(O)cc2O[C@@H]1c1cc(O)c(O)c(O)c1)c1cc(O)c(O)c(O)c1 [EGCG, epigallocatechin-gallate] | – | – | – | – | – | – | – | – | – | – | – | – | – | – | – | – | > 60
6 | O=C(O)c1cc(O)c(O)c(O)c1 [GA, Gallic acid] | detectable levels; also recorded: trace levels | – | No detectable amounts | – | – | – | – | – | – | – | – | – | – | – | – | < 2 % of oral dose | –

Reference: PMC2801429 (Journal of Alzheimer's disease : JAD, 2009)
